In patent publication US6139840A, “Methods of eliciting an antibody response using flea protease proteins and homologs thereof” (priority 1997, dated 2000):
Read-outs that look alike come from different tables or passages of the source. Square brackets hold non-standard residues; d marks the D form. Peptide text beside a SMILES is read from it. * marks the point of attachment. Sta = CC(C)C[C@H](N)[C@@H](O)CC(=O)O; Isovaleryl = CC(C)CC(=O)*

Tests used:
flea aminopeptidase = assay: Leu-AMC cleavage by serine protease-depleted flea midgut lysate; format: biochemical
Method: The starting material for the isolation of a flea aminopeptidase was a flea midgut lysate preparation that had been depleted of serine proteases by passage over a benzamidine-Sepharose affinity column. To assay for aminopeptidase activity, the synthetic substrate L-Leucine-AMC (Leu-AMC), which releases a fluorescent AMC leaving group upon proteolytic cleavage, was incubated with the serine protease-depleted flea midgut preparation. Aminopeptidase activity was easily detectable with as little as 1.2 μg of lysate, both confirming the presence of an aminopeptidase (as indicated in other Examples herein) and allowing for the detection of aminopeptidase activity in fractions collected throughout subsequent fractionation and purification procedures.

flea midgut proteases = assay: Protease substrate gel analysis of flea midguts with protease inhibitors in the incubation buffers; format: biochemical; conditions: for effect on protease activity in protease substrate gel: unfed and fed female midguts, AEBSF 1 mM, soybean trypsin inhibitor 100 μg/ml, leupeptin 10 μg/ml in all incubation buffers
Method: Protease substrate gels (available from Novex, San Diego, Calif., as Novex Zymogels) were 10% polyacrylamide-SDS gels with 0.1% gelatin. Samples and gels were processed according to Novex instructions. Briefly, samples were diluted in SDS-PAGE sample buffer without reducing agents. Tris-glycine SDS-PAGE was carried out by standard procedures. After electrophoresis, gels were incubated in 0.25% Triton X-100 at room temperature for 30 minutes (min), then in developing buffer (50 mM (millimolar) Tris-HCl pH 7.0, 5 mM CaCl2, 0.02% Brij 35, 0.2 M (molar) NaCl) at room temperature for 30 min, and then incubated with fresh developing buffer at 37° C., usually overnight. Gels were then stained 30 min in 0.5% coomassie R-250, 40% methanol, 10% acetic acid and destained in 40% methanol, 10% acetic acid.
Three unfed female midguts and 0.75 fed female midguts were evaluated in duplicate in several protease substrate gels. Each gel was cut in half. Half was processed as described in Example 2, while the other half contained protease inhibitors in all incubation buffers. The following inhibitors were evaluated:
Mixed-sex fed flea midguts were processed as described in U.S. Pat. No. 5,356,622, ibid. Aliquots of several steps of the procedure were evaluated by loading an equivalent of 0.4 midguts per lane of a protease substrate gel as described in Example 2. Samples were from the low speed supernatant (lanes 2 and 9), sonicated midguts (lanes 3 and 10), high speed supernatant (lanes 4 and 11), combined low and high speed supernatants (FGS) (lanes 5 and 12) and the high speed pellet (lanes 6 and 13). Lanes 7 and 8 contained 50 nanograms (ng) of trypsin as a control. Duplicate lanes were evaluated. The gel was cut in half, and lanes 1-7 were processed as described in Example 2, and lanes 8-14 were processed with 100 μg/ml soybean trypsin inhibitor in all the incubation buffers.

adult fleas = assay: Flea feeding system: viability and fecundity of fleas fed blood containing protease inhibitors; format: in vivo; conditions: for Fecundity Days 1-7 / Adult Survival Female / Adult Survival Male / Adult Survival Total: percent of corresponding control group; for reduction in adult viability: not statistically significant
Method: This Example evaluates the effect of a number of protease inhibitors on flea viability and fecundity in a flea feeding system as described by Wade et al. ibid.
Protease inhibitor compounds were tested in groups of 3 to 6 including appropriate control groups. Inhibitors were not tested in groups of common inhibition types. Rather, they were tested in groups based on the diluent needed to dissolve them. (AEBSF, aprotinin, bestatin, leupeptin, phosphoramidon, soybean trypsin inhibitor and soybean trypsin/chymotrypsin inhibitor were dissolved in water; E-64 and pepstatin were dissolved in ethanol). This reduced the number of control (diluent only) groups needed within a particular assay. Inhibitor concentrations were chosen such that the lower concentration used was within the range recommended by the supplier for that inhibitor. The higher concentration was typically 10 times above the lower concentration and was used to look for dose response.
The general protocol for all of the assays was as follows: Approximately 2000 newly emerged adult fleas were placed in feeding chambers to feed on normal blood for about 24 to 48 hr. The fleas were prefed for two reasons: The first was to be certain that only fleas that would feed in the feeding system were used in the comparative study.
The prefed fleas were placed in "minifeeder" feeding chambers at a ratio of about 80 female fleas to about 20 male fleas for a total of about 100 fleas per chamber. Actual total number of fleas per chamber varied from about 90 to 125 fleas. […] Three chambers were prepared for each experimental and control group. A fresh blood meal containing the appropriate inhibitor in 3 ml total volume was placed on each chamber daily through the 7 day extent of an assay.
On days 3, 5, and 7 of the assay, surviving adult fleas were transferred to clean chambers. The contents of the original chambers were dissolved in about 40 ml of PBS (phosphate-buffered saline) in a 50 ml Falcon tube. The contents of a given tube were then filtered through a preweighed #1 Whatman filter disk inserted into a vacuum filter. The 50 ml tube and the filter funnel were rinsed with distilled water which was then passed through the filter. Once the chamber contents had been filtered, dead adult fleas were removed from the filter paper and placed in a labelled tube so that they could be counted and sexed. The filter paper was then placed into a preweighed 12×75 polypropylene tube and dried in the SpeedVac for 2.5 hr with the heater on. After drying the filter paper was weighed. The weight of the filter paper and tube was subtracted to obtain the dry weight of the eggs and this value was converted to an estimated number of eggs using the formula y=41384.361x+162.37, where x=dry weight of eggs.
On day 7, adult fleas that had survived the study were frozen, counted and sexed. The numbers were added to the number of male and female fleas that had died during the assay to verify the number of male and female fleas in each chamber at the start of the study.
Female, male and total adult flea survival were calculated for all experimental and control groups on days 3, 5, and 7 of each assay. Additionally, the number of eggs per surviving female was calculated on days 3, 5 and 7. Female fleas found dead on a given collection date were included in the total number of egg-laying females for the days between that date and the previous collection date, providing a conservative estimate of fecundity. Fecundity values were averaged for the three collection dates to obtain an average for each group over 7 days.
Results of these studies are presented below in Table 1 and FIG. 6 through FIG. 9. All survival and fecundity values are presented below as a percent of control value.

leucine aminopeptidase = assay: Leu-AMC cleavage by control protease; format: biochemical; conditions: 10 mM EDTA, 86 μg/ml bestatin; substrate Leu-AMC
[1] = 1 mM pefabloc, 1 mg/ml trypsin/chymotrypsin inhibitor, 1 mg/ml trypsin inhibitor, 1 mM TPCK, 1 μg/ml pepstatin, 10 μg/ml E-64, 10 μg/ml leupeptin, 10 mM EDTA, 86 μg/ml bestatin, lysate about 1.2 μg and about 12 μg
[2] = at the concentrations tested in blood meal
[3] = 1 μg/ml in blood meal, second 1 μg/ml line under E-64
[4] = 10 μg/ml in blood meal, second 10 μg/ml line under E-64

## Cc1ccc(S(=O)(=O)N[C@@H](Cc2ccccc2)C(=O)CCl)cc1 [TPCK, N-tosyl-L-phenylalanine chloromethyl ketone]
Flea aminopeptidase; [1]
  inhibition of the flea protease that cleaved Leu-AMC: Only bestatin inhibited

## Cl.NCCc1ccc(S(=O)(=O)F)cc1 [AEBSF, 4-2-aminoethyl-benzenesulfonylfluoride-hydrochloride]
Flea midgut proteases
  effect on protease activity in protease substrate gel: only inhibitors to have any effect
Adult fleas; 0.3 mM in blood meal
  Fecundity Days 1-7: 82.4%
Adult fleas; 0.5 mM in blood meal
  Fecundity Days 1-7: 95.0%
Adult fleas; 5.0 mM in blood meal
  Adult Survival Female: 6.8%
  Adult Survival Male: 0.0%
  Adult Survival Total: 5.6%
  Fecundity Days 1-7: 1.4%
Adult fleas; 6.0 mM in blood meal
  Adult Survival Female: 4.1%
  Adult Survival Male: 0.0%
  Adult Survival Total: 3.4%
  Fecundity Days 1-7: 17.2%
Adult fleas; about 5 mM to about 6 mM in blood meal
  reduction in flea fecundity: more than 80%
Adult fleas; about 5 mM to about 6 mM in blood meal, p<0.05
  adult survival: reduced to near zero

## O=C(O)CN(CCN(CC(=O)O)CC(=O)O)CC(=O)O [EDTA, ethylenediaminetetraacetic acid]
Leucine aminopeptidase
  inhibition of the control protease: inhibited
Flea aminopeptidase
  inhibition of the flea protease that cleaved Leu-AMC: Only bestatin inhibited

## CC(C)C[C@H](NP(=O)(O)O[C@@H]1O[C@@H](C)[C@H](O)[C@@H](O)[C@H]1O)C(=O)N[C@@H](Cc1c[nH]c2ccccc12)C(=O)O [Phosphoramidon]
Adult fleas; 10 μg/ml in blood meal
  Adult Survival Female: 98.8%
  Adult Survival Male: 95.2%
  Adult Survival Total: 97.8%
  Fecundity Days 1-7: 89.0%
Adult fleas; 100 μg/ml in blood meal
  Adult Survival Female: 70.2%
  Adult Survival Male: 64.6%
  Adult Survival Total: 69.7%
  Fecundity Days 1-7: 84.9%
Adult fleas; [2]
  effect on fecundity: no significant reduction in fecundity
Adult fleas; concentration not given
  reduction in adult viability: about 30%

## CC(=O)N[C@@H](CC(C)C)C(=O)N[C@@H](CC(C)C)C(=O)N[C@H](C=O)CCCNC(=N)N [Leupeptin]
Flea aminopeptidase
  inhibition of the flea protease that cleaved Leu-AMC: Only bestatin inhibited
Flea midgut proteases
  effect on protease activity in protease substrate gel: only inhibitors to have any effect
Adult fleas; 5 μg/ml in blood meal
  reduction in adult viability: 30%
  Adult Survival Female: 71.0%
  Adult Survival Male: 61.4%
  Adult Survival Total: 68.4%
  Fecundity Days 1-7: 85.0%
Adult fleas; 50 μg/ml in blood meal
  effect on adult viability: not affected
  Fecundity Days 1-7: 77.6%
Adult fleas; [2]
  effect on fecundity: no effect on fecundity

## CC(C)CC(NC(=O)C1OC1C(=O)O)C(=O)NCCCCNC(=N)N [E-64, trans-epoxysuccinyl-L-leucylamido-(4-guanidino)butane]
Flea aminopeptidase; [1]
  inhibition of the flea protease that cleaved Leu-AMC: Only bestatin inhibited
Adult fleas; [3]
  Adult Survival Female: 77.3%
  Adult Survival Male: 80.0%
  Adult Survival Total: 77.5%
  Fecundity Days 1-7: 95.2%
Adult fleas; 1 μg/ml in blood meal
  Adult Survival Female: 99.9%
  Fecundity Days 1-7: 109.4%
Adult fleas; [4]
  Adult Survival Female: 90.2%
  Adult Survival Male: 91.1%
  Adult Survival Total: 90.6%
  Fecundity Days 1-7: 84.1%
Adult fleas; 10 μg/ml in blood meal
  Fecundity Days 1-7: 177.4%
Adult fleas; [2]
  effect on fecundity: no statistically significant reduction in fecundity
Adult fleas; dissolved in grain alcohol, 1 μg/ml in blood
  total adult flea survival: small, but significant (p<0.05), reduction
Adult fleas; in grain alcohol, 10 μg/ml in blood
  total adult flea survival: not evident

## CC(C)CC(=O)N[C@H](C(=O)N[C@H](C(=O)N[C@@H](CC(C)C)[C@@H](O)CC(=O)N[C@@H](C)C(=O)N[C@@H](CC(C)C)[C@@H](O)CC(=O)O)C(C)C)C(C)C [Pepstatin A] (Isovaleryl-VV[Sta]A[Sta]-OH)
Flea aminopeptidase
  inhibition of the flea protease that cleaved Leu-AMC: Only bestatin inhibited
Adult fleas; 1 μg/ml in blood meal
  Adult Survival Female: 77.6%
  Adult Survival Male: 96.6%
  Adult Survival Total: 80.5%
  Fecundity Days 1-7: 67.7%
Adult fleas; 1 μg/ml in blood meal, significant (p<0.05)
  reduction in fecundity: 32%
Adult fleas; 10 μg/ml in blood meal
  Fecundity Days 1-7: 83.9%
Adult fleas; [2]
  effect on adult viability: no significant effect on adult viability

## CC(C)C[C@H](NC(=O)[C@@H](O)[C@H](N)Cc1ccccc1)C(=O)O [Bestatin]
Leucine aminopeptidase
  inhibition of the control protease: inhibited
Flea aminopeptidase; [1]
  inhibition of the flea protease that cleaved Leu-AMC: inhibited
Adult fleas; 1.3 mM in blood meal
  Fecundity Days 1-7: 60.4%
Adult fleas; 1.3 mM in blood meal, significant (p<0.05)
  reduction in fecundity: 40%
Adult fleas; 13.0 mM in blood meal
  Fecundity Days 1-7: 23.3%
Adult fleas; 13 mM in blood meal, significant (p<0.05)
  reduction in fecundity: 77%
Adult fleas; [2]
  effect on adult viability: no significant effect on adult viability

## Cl.NCCc1ccc(S(=O)(=O)F)cc1 [pefabloc]
Flea aminopeptidase; [1]
  inhibition of the flea protease that cleaved Leu-AMC: Only bestatin inhibited

B1: Soybean Trypsin Inhibitor: serine protease inhibitor, available from Sigma (protein, UniProt P01070 25-205, looked up)
Trypsin inhibitor A: DFVLDNEGNPLENGGTYYILSDITAFGGIRAAPTGNERCPLTVVQSRNELDKGIGTIISSPYRIRFIAEGHPLSLKFDSFAVIMLCVGIPTEWSVVEDLPEGPAVKIGENKDAMDGWFRLERVSDDEFNNYKLVFCPQQAEDDKCGDIGISIDHDDGTRRLVVSKNKPLVVQFQKLDKESL
Flea aminopeptidase
  inhibition of the flea protease that cleaved Leu-AMC: Only bestatin inhibited
Flea midgut proteases; mixed-sex fed flea midgut fractions, 100 μg/ml in all incubation buffers
  inhibition of protease activity in protease substrate gel: majority of the activity was inhibited
Flea midgut proteases
  effect on protease activity in protease substrate gel: only inhibitors to have any effect
Adult fleas; 10 μg/ml in blood meal
  effect on fecundity: no effect
  Adult Survival Female: 80.1%
  Adult Survival Male: 101.7%
  Adult Survival Total: 83.9%
  Fecundity Days 1-7: 96.1%
Adult fleas; 100 μg/ml in blood meal
  Adult Survival Female: 76.5%
  Adult Survival Male: 76.0%
  Adult Survival Total: 76.3%
  Fecundity Days 1-7: 79.1%
Adult fleas; 100 μg/ml in blood meal, statistically insignificant
  reduction in fecundity: 20%
